Source: patent US9232799B2, “N-[(het)arylethyl)] pyrazole(thio)carboxamides and their heterosubstituted analogues” (BAYER INTELLECTUAL PROPERTY GMBH, priority 2010, dated 2016)

Experiments:
[1] = logP by HPLC on reversed-phase column (C 18), EEC Directive 79/831 Annex V.A8; type: physicochemical
Description: In table 1, the logP values were determined in accordance with EEC Directive 79/831 Annex V.A8 by HPLC (High Performance Liquid Chromatography) on a reversed-phase column (C 18), using the method described below: Temperature: 40° C.; […]

Sphaerotheca fuliginea = test: In vivo preventive test on Sphaerotheca fuliginea (cucumber); settings: 500 ppm of active ingredient, evaluated 7 days after inoculation
From the text: One day after this treatment, the plants are inoculated with an aqueous spore suspension of Sphaerotheca fuliginea.

Alternaria solani = test: In vivo preventive test on Alternaria solani (tomato); settings: 500 ppm of active ingredient, evaluated 7 days after inoculation
From the text: One day after this treatment, the plants are inoculated with an aqueous spore suspension of Alternaria solani.

Pyrenophora teres = test: In vivo preventive test on Pyrenophora teres (barley); settings: 500 ppm of active ingredient, evaluated 7-9 days after inoculation
From the text: One day after this treatment, the plants are inoculated with an aqueous spore suspension of Pyrenophora teres.

Venturia inaequalis = test: In vivo preventive test on Venturia inaequalis (apple scab); settings: 100 ppm of active ingredient, evaluated 10 days after inoculation
Septoria tritici = test: In vivo preventive test on Septoria tritici (wheat); settings: 500 ppm of active ingredient, evaluated 21 days after inoculation
From the text: (§1) To test for preventive activity, young plants are sprayed with the preparation of active compound or active compound combination at the stated rate of application.

[2] = system: Blumeria graminis f.sp. hordei; test: In vivo preventive test on Blumeria graminis (barley); settings: 500 ppm of active ingredient, evaluated 7 days after inoculation
From the text: as §1

[3] = system: Fusarium nivale (var. majus); test: In vivo preventive test on Fusarium nivale (wheat); settings: 500 ppm of active ingredient, evaluated 5 days after inoculation
From the text: as §1

Leptosphaeria nodorum = test: In vivo preventive test on Leptosphaeria nodorum (wheat); settings: 500 ppm of active ingredient, evaluated 7-9 days after inoculation
From the text: One day after this treatment, the plants are inoculated with an aqueous spore suspension of Leptosphaeria nodorum.

Uromyces appendiculatus = test: In vivo preventive test on Uromyces appendiculatus (beans); settings: 100 ppm of active ingredient, evaluated 10 days after inoculation
Botrytis cinerea = test: In vivo preventive test on Botrytis cinerea (beans); settings: preventive, beans, lesion size 2 days after inoculation; for pest or weed control at 100 ppm / Efficacy: 100 ppm of active ingredient
From the text: To test for preventive activity, young plants are sprayed with the preparation of active compound. After the spray coating has dried on, 2 small pieces of agar covered with growth of Botrytis cinerea are placed on each leaf.

Puccinia triticina = test: In vivo preventive test on Puccinia triticina (wheat); settings: evaluated 8 days after inoculation; for Efficacy: dose 500 ppm of active ingredient
Cochliobolus miyabeanus = test: In vivo protective test on Cochliobolus miyabeanus (rice); settings: evaluated 4 days after inoculation; for Efficacy (protection): protective, 10 ppm of active ingredient (lowest of 250, 100, 50 and 10 ppm)
aflatoxines production = test: microbe, parasite or virus in culture; type: cell-based, Aspergillus parasiticus; settings: for inhibition at 50 µM: Aspergillus parasiticus, 168 h, read-out: % Inhibition of Aflatoxin at 50 μM
Fusarium graminearum = test: microbe, parasite or virus in culture; type: cell-based; settings: for inhibition at 50 µM: Fusarium graminearum, 168 h, read-out: % Inhibition of fungal growth at 50 μM
[4] = system: Fusarium nivale (var. majus); test: In vivo curative test on Fusarium nivale (wheat); settings: 500 ppm of active ingredient, evaluated 5 days after inoculation
[5] = Botrytis cinerea, 48 h, read-out: Efficacy
[6] = dose 250 ppm of active ingredient
[7] = dose 10 ppm of active ingredient
[8] = dose 50 ppm of active ingredient
[9] = dose 100 ppm of active ingredient

SMILES	Efficacy (Sphaerotheca fuliginea) [%]	Efficacy (Alternaria solani) [%]	Efficacy (Pyrenophora teres) [%]	Efficacy (Venturia inaequalis) [%]	Efficacy (Septoria tritici) [%]	Efficacy [2] [%]	Efficacy [3] [%]	Efficacy (Leptosphaeria nodorum) [%]	Efficacy (Uromyces appendiculatus) [%]	Efficacy (Cochliobolus miyabeanus; [6]) [%]	Efficacy (Botrytis cinerea) [%]	% Inhibition of Aflatoxin at 50 μM (aflatoxines production) [%]	% Inhibition of fungal growth at 50 μM (Fusarium graminearum) [%]	logP [1]	also measured
CC(Cc1ncc(C(F)(F)F)cc1Cl)N(C(=O)c1c(C(F)F)nn(C)c1F)C1CC1 (centres unmarked) [Example 188, N-{1-[3-chloro-5-(trifluoromethyl)pyridin-2-yl]propan-2-yl}-N-cyclopropyl-3-(difluoromethyl)-5-fluoro-1-methyl-1H-pyrazole-4-carboxamide]	100	100	100	100	100	100	100	100	98	80					chromatographic logP [1]: 3.8; pest or weed control at 100 ppm (Botrytis cinerea; [5]): 98%; pest or weed control at 500 ppm (Botrytis cinerea; Botrytis cinerea, 48 h, 500 ppm of active ingredient, read-out: Efficacy): > 95%; Efficacy (Puccinia triticina): 90%; Efficacy (protection) (Puccinia triticina; preventive, 500 ppm of active ingredient): greater than 90%; inhibition at 50 µM (aflatoxines production): 100%; inhibition at 50 µM (Fusarium graminearum): 100%
COC(CN(C(=O)c1c(C(F)F)nn(C)c1F)C1CC1)c1ccc(Cl)cc1Cl (centres unmarked) [Example 80]	100	95	100	100				100	80		100	100	100		Efficacy (Puccinia triticina): 80%
COC(c1ccc(Cl)cc1Cl)C(C)NC(=O)c1cn(C)nc1C(F)F (centres unmarked) [1.14 from WO-2008/148570, N-[1-(2,4-dichlorophenyl)-1-methoxypropan-2-yl]-3-(difluoromethyl)-1-methyl-1H-pyrazole-4-carboxamide, reference compound]										98					Efficacy (Cochliobolus miyabeanus; [7]): 20%; Efficacy (Cochliobolus miyabeanus; [8]): 80%; Efficacy (Cochliobolus miyabeanus; [9]): 92%; Efficacy (protection) (Cochliobolus miyabeanus): less than 20%
CC(Cc1cc(Cl)ccc1Cl)NC(=O)c1c(C(F)F)nn(C)c1F (centres unmarked) [Example 92]	88	100	100							90		100	100	3.37	
CC(Cc1c(F)cccc1Cl)N(C(=O)c1c(C(F)F)nn(C)c1F)C1CC1 (centres unmarked) [Example 120]	100	100	100	100	100	94	100	100	100		94	100	100	3.76	Efficacy (Puccinia triticina): 70%
Cn1nc(C(F)F)c(C(=O)NCCc2ccc(Cl)cc2Cl)c1Cl [Example 66]				100	71	90	100		98			100	100	3.31	
CC(Cc1ccc(Cl)cc1)N(C(=O)c1c(C(F)F)nn(C)c1F)C1CC1 (centres unmarked) [Example 55]	100	95	100	100	100	100	100	95	96		100	100	100	3.73	
CC(Cc1c(Cl)cccc1Cl)N(C(=O)c1c(C(F)F)nn(C)c1F)C1CC1 (centres unmarked) [Example 115]	100	100	100	100		100	100	95	98		93	100	100	4.06	Efficacy (Puccinia triticina): 90%
Cn1nc(C(F)F)c(C(=O)NC2CC2c2ccc(Cl)cc2)c1F (centres unmarked) [Example 224]	84	95	100	100				80	100			100	100	2.61	
Cn1nc(C(F)F)c(C(=O)NCCc2ncc(C(F)(F)F)cc2Cl)c1F [Example 187]		100	100	100	100	94			96	85	100	100	100	2.75	
Cn1nc(C(F)F)c(C(=O)N(CC(F)(F)c2ccccc2Cl)C2CC2)c1F [Example 44]	100	100	100	100	100	100	100	100			99	100	100	3.39	
Cc1cc(Br)ccc1C(=O)C(C)(C)NC(=O)c1c(C(F)F)nn(C)c1F [Example 133]	100	95	100	100	80	100	100	100			100	100	100	3.37	
CC(Cc1cccc(Cl)c1)NC(=O)c1c(C(F)F)nn(C)c1F (centres unmarked) [Example 50]		100	100							90		100	100	3.02	
COC(CNC(=O)c1c(C(F)F)nn(C)c1Cl)c1cc(Cl)cc(Cl)c1 (centres unmarked) [Example 106]			90		71							89	69	3.55	Efficacy [4]: 93%
Cn1nc(C(F)F)c(C(=O)NCCc2ccc(Cl)cc2Cl)c1F [Example 65]	79	90	100	100	100	95			100			100	100	3.09	
COC(c1ccc(Cl)cc1Cl)C(C)NC(=O)c1c(C(F)F)nn(C)c1F (centres unmarked) [Example 73, N-[1-(2,4-dichlorophenyl)-1-methoxypropan-2-yl]-3-(difluoromethyl)-5-fluoro-1-methyl-1H-pyrazole-4-carboxamide]	100	100	100	100	100	100	88			98				3.75	chromatographic logP [1]: 3.65; pest or weed control at 100 ppm (Botrytis cinerea; [5]): 99%; Efficacy (Cochliobolus miyabeanus; [7]): 65%; Efficacy (Cochliobolus miyabeanus; [8]): 92%; Efficacy (Cochliobolus miyabeanus; [9]): 97%; Efficacy (protection) (Cochliobolus miyabeanus): at least 65%; inhibition at 50 µM (aflatoxines production): 100%; inhibition at 50 µM (Fusarium graminearum): 100%
Cn1nc(C(F)F)c(C(=O)N(C2CC2)C2CCCC2c2ccccc2Cl)c1F (centres unmarked) [Example 210]	100	100	100	100	100	100	86	90			100	100	100	4.31	
